# Measurements reported in ChEMBL document CHEMBL1122882, “3,4-O-diacetylisoproterenol. Preparation, structure proof, and beta-receptor effect” (1985).
# Species: Rattus norvegicus
# Experiment: Evaluated for the efficacy in stimulating cAMP synthesis by beta-1-adrenoceptor in rat cerebral cortex.
# Type: functional
row,SMILES,Efficacy
1,CC(=O)Oc1ccc(C(Cl)CNC(C)C)cc1OC(C)=O (configuration not stated),1
2,CC(=O)Oc1ccc(C(O)CNC(C)C)cc1OC(C)=O (configuration not stated) [DIACETYLISOPROTERENOL],1
